Test results reported in patent US6616945B1, “Method for making a pharmaceutical formulation” (Leiras Oy, priority 1997, dated 2003).

Assay: X-ray diffraction (XRD) study of crystallinity / amorphous content
Type: physicochemical
Method: FIG. 1 presents the X-ray diffraction (XRD) patterns of three salbutamol samples.
In FIG. 1, the XRD patterns of the three salbutamol samples, which were each treated differently before analysis is shown as follows:
Also the initial mean particle size had been increased close to the upper acceptable limit.
Samples of some months ago micronized material were suspended in n-heptane and stirred 7 and 16 hours at 70° C., followed by drying.
Specific surface area and the energy for moisture absorption during transfer from 0 to 80% RH were metered: […]

## salbutamol sulphate
Micronized drug stored 10 hors at 40° C. and 50% RH
  change in amount of amorphous matter: clear decrease
Stirred 7 hours at 50° C. as n-heptane suspension
  crystallinity by XRD: slightly less
Stirred 7 hours at 60° C. as n-heptane suspension
  crystallinity by XRD: practically total crystallinity
Stirred 7 hours at 70° C. as n-heptane suspension
  crystallinity by XRD: practically total crystallinity
Untreated micronized sample
  amorphous content by XRD: a detectable amount of the drug was amorphous
